From the NIST ThermoML archive (doi:10.1021/je901043q)

Assay: xn = mol fraction of the nth substance listed
Conditions: 101 kPa, Liquid

CCCCn1cc[n+](C)c1.N#C[S-] [1-butyl-3-methylimidazolium thiocyanate] + CCCCCCCO
Conditions | mass density [kg/m3] | viscosity [mPa·s]
298.15 K, x1 = 0.0806 | 845.64 | 7.319
298.15 K, x1 = 0.14 | 864.24 | 8.422
298.15 K, x1 = 0.2203 | 888.14 | 10.16
298.15 K, x1 = 0.3006 | 910.91 | 12.31
298.15 K, x1 = 0.3997 | 937.73 | 15.5
298.15 K, x1 = 0.4903 | 960.98 | 18.92
298.15 K, x1 = 0.5703 | 980.45 | 22.22
298.15 K, x1 = 0.6949 | 1008.83 | 28.65
298.15 K, x1 = 0.7981 | 1031.04 | 34.6
298.15 K, x1 = 0.8852 | 1048.62 | 39.81
298.15 K, x1 = 0.9793 | 1066.13 | 47.21
298.15 K, x1 = 1 | 1069.79 | 51.74
308.15 K, x1 = 0.0806 | 838.75 | 5.395
308.15 K, x1 = 0.14 | 857.45 | 6.213
308.15 K, x1 = 0.2203 | 881.49 | 7.479
308.15 K, x1 = 0.3006 | 904.36 | 9.061
308.15 K, x1 = 0.3997 | 931.34 | 11.31
308.15 K, x1 = 0.4903 | 954.7 | 13.59
308.15 K, x1 = 0.5703 | 974.26 | 15.73
308.15 K, x1 = 0.6949 | 1002.79 | 19.86
308.15 K, x1 = 0.7981 | 1025.06 | 23.67
308.15 K, x1 = 0.8852 | 1042.69 | 26.77
308.15 K, x1 = 0.9793 | 1060.22 | 31.2
308.15 K, x1 = 1 | 1063.89 | 34.87
318.15 K, x1 = 0.0806 | 831.82 | 4.085
318.15 K, x1 = 0.14 | 850.63 | 4.725
318.15 K, x1 = 0.2203 | 874.82 | 5.654
318.15 K, x1 = 0.3006 | 897.84 | 6.884
318.15 K, x1 = 0.3997 | 924.97 | 8.55
318.15 K, x1 = 0.4903 | 948.46 | 10.19
318.15 K, x1 = 0.5703 | 968.12 | 11.67
318.15 K, x1 = 0.6949 | 996.76 | 14.49
318.15 K, x1 = 0.7981 | 1019.11 | 17.02
318.15 K, x1 = 0.8852 | 1036.79 | 19.03
318.15 K, x1 = 0.9793 | 1054.36 | 21.9
318.15 K, x1 = 1 | 1058.02 | 24.19
328.15 K, x1 = 0.0806 | 824.81 | 3.166
328.15 K, x1 = 0.14 | 843.79 | 3.685
328.15 K, x1 = 0.2203 | 868.14 | 4.369
328.15 K, x1 = 0.3006 | 891.32 | 5.306
328.15 K, x1 = 0.3997 | 918.62 | 6.634
328.15 K, x1 = 0.4903 | 942.26 | 7.875
328.15 K, x1 = 0.5703 | 962.02 | 8.926
328.15 K, x1 = 0.6949 | 990.79 | 11.02
328.15 K, x1 = 0.7981 | 1013.22 | 12.79
328.15 K, x1 = 0.8852 | 1030.94 | 14.2
328.15 K, x1 = 0.9793 | 1048.56 | 16.16
328.15 K, x1 = 1 | 1052.19 | 16.7
338.15 K, x1 = 0.0806 | 817.69 | 2.508
338.15 K, x1 = 0.14 | 836.85 | 2.935
338.15 K, x1 = 0.2203 | 861.43 | 3.47
338.15 K, x1 = 0.3006 | 884.79 | 4.186
338.15 K, x1 = 0.3997 | 912.28 | 5.262
338.15 K, x1 = 0.4903 | 936.05 | 6.24
338.15 K, x1 = 0.5703 | 955.92 | 7.057
338.15 K, x1 = 0.6949 | 984.85 | 8.62
338.15 K, x1 = 0.7981 | 1007.36 | 9.943
338.15 K, x1 = 0.8852 | 1025.11 | 10.97
338.15 K, x1 = 0.9793 | 1042.8 | 12.38
338.15 K, x1 = 1 | 1046.43 | 12.73
348.15 K, x1 = 0.0806 | 810.46 | 2.022
348.15 K, x1 = 0.14 | 829.85 | 2.383
348.15 K, x1 = 0.2203 | 854.69 | 2.837
348.15 K, x1 = 0.3006 | 878.24 | 3.403
348.15 K, x1 = 0.3997 | 905.95 | 4.222
348.15 K, x1 = 0.4903 | 929.89 | 5.029
348.15 K, x1 = 0.5703 | 949.88 | 5.663
348.15 K, x1 = 0.6949 | 978.95 | 6.884
348.15 K, x1 = 0.7981 | 1001.53 | 7.93
348.15 K, x1 = 0.8852 | 1019.34 | 8.707
348.15 K, x1 = 0.9793 | 1037.06 | 9.802
348.15 K, x1 = 1 | 1040.7 | 9.98
